# Reference: patent US20250163104A1, “MACROCYCLIC IMMUNOMODULATORS” (priority 2021, published 2025)
# Where a SMILES comes first, the peptide text is derived from it. Bridges are numbered along the chain shown (N, C = ends). [ ]: non-standard residue; d: D form. The star is where a group is joined. Phe(4-tBu) = CC(C)(C)c1ccc(C[C@H](N)C(=O)O)cc1; Bip = N[C@@H](Cc1ccc(-c2ccccc2)cc1)C(=O)O; Phe(3-Me) = Cc1cccc(C[C@H](N)C(=O)O)c1; Cha = N[C@@H](CC1CCCCC1)C(=O)O; Cit = NC(=O)NCCC[C@H](N)C(=O)O; dCha = N[C@H](CC1CCCCC1)C(=O)O; dDab = NCC[C@@H](N)C(=O)O; Carboxymethyl = O=C(O)C*; Orn = NCCC[C@H](N)C(=O)O; Dab = NCC[C@H](N)C(=O)O; Dap = NC[C@H](N)C(=O)O
# Molecular target: T1, human PD-1 / PD-L1-Ig binding on Jurkat cell line over-expressing human PD-1 (Jurkat-PD-1) (Homo sapiens, UniProt Q15116)
# T1 construct: expressed in transfected cells; host or cells: Jurkat
# T1 sequence (Q15116 25-288): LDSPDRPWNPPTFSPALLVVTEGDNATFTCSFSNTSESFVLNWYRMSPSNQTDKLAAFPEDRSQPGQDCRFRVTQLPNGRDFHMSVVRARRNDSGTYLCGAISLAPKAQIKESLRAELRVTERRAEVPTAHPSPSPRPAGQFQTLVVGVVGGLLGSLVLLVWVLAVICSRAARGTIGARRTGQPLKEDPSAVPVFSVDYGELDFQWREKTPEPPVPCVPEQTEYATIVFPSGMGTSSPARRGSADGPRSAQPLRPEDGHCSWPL
# Assay: Jurkat-PD-1 Cell Binding High-Content Screening Assay (CBA)
# Type: cell-based
# Conditions: Jurkat HPD1_PDL1 IC50, Jurkat-PD-1 cells, PE-labeled PD-L1-Ig 20 nM final
# Procedure, shortened: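 PE-PD-L1-Ig 20 nM final; cells in DMEM/10% FCS; cpd pre-incubation 2 h, 37° C; ligand 1 h; PFA fix + Hoechst 33342; high-content imaging read-out.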
row,Compound,IC50 [nM]
1,CC(C)C[C@H]1NC(=O)[C@H](CCCN)NC(=O)[C@H](C(C)C)NC(=O)[C@H](Cc2ccc(-c3ccccc3)cc2)NC(=O)[C@H](C(C)C)NC(=O)[C@H](Cc2c[nH]c3ccccc23)NC(=O)[C@H](CC(=O)O)NC(=O)[C@H](Cc2ccc(OCc3ccccc3)cc2)NC(=O)[C@H](CN)NC(=O)CSC[C@@H](C(=O)N[C@@H](C)C(N)=O)NC(=O)[C@H]([C@@H](C)O)NC(=O)[C@H](C(C)C)NC(=O)[C@H](CC2CCCCC2)NC(=O)[C@H](CCN)NC1=O [Compound 1528],100

# Same assay, conditions: Jurkat-PD-1 cells, PE-labeled PD-L1-Ig 20 nM final; read-out: Jurkat HPD1_PDL1 IC50
row,Compound,IC50 [nM]
1,Cc1cccc(C[C@@H]2NC(=O)[C@H](CC(=O)O)NC(=O)[C@H](Cc3ccc(OCC(=O)O)cc3)NC(=O)[C@H](CN)NC(=O)CSC[C@@H](C(=O)N[C@@H](CCN)C(N)=O)NC(=O)[C@@H](CCN)NC(=O)[C@H](C(C)C)NC(=O)[C@H](CC3CCCCC3)NC(=O)[C@H](CCN)NC(=O)[C@@H](CC(C)C)NC(=O)[C@H](CCCN)NC(=O)[C@H](Cc3ccc(O)cc3)NC(=O)[C@H](Cc3ccc(-c4ccccc4)cc3)NC(=O)[C@H](Cc3ccc(O)cc3)NC2=O)c1 [Compound 2045] ({CH2CO}-[Dap]Y(Carboxymethyl)D[Phe(3-Me)]Y[Bip]Y[Orn][dL][Dab][Cha]V[dDab]C[Dab]-NH2; thioether N-14),10.5
2,CC(C)C[C@@H]1NC(=O)[C@H](CCN)NC(=O)[C@@H](CC(C)C)NC(=O)[C@H](CCN)NC(=O)[C@H](CCC(=O)O)NC(=O)[C@H](Cc2ccc(-c3ccccc3)cc2)NC(=O)[C@H](C(C)C)NC(=O)[C@H](Cc2c[nH]c3ccccc23)NC(=O)[C@H](CC(=O)O)NC(=O)[C@H](Cc2ccc(OCC(=O)O)cc2)NC(=O)[C@H](Cc2ccc(OCC(=O)O)cc2)NC(=O)CSC[C@@H](C(=O)N[C@@H](C)C(N)=O)NC(=O)[C@H](CO)NC(=O)[C@H](C(C)C)NC1=O [Compound 1268] ({CH2CO}-Y(Carboxymethyl)Y(Carboxymethyl)DWV[Bip]E[Dab][dL][Dab]LVSCA-NH2; thioether N-14),24.6
3,CC(C)C[C@@H]1NC(=O)[C@H](CCN)NC(=O)[C@@H](CC(C)C)NC(=O)[C@H](CCCN)NC(=O)[C@H](CCCNC(N)=O)NC(=O)[C@H](Cc2ccc(-c3ccccc3)cc2)NC(=O)[C@H](C(C)C)NC(=O)[C@H](Cc2c[nH]c3ccccc23)NC(=O)[C@H](CC(=O)O)NC(=O)[C@H](Cc2ccc(OCC(=O)O)cc2)NC(=O)[C@H](CN)NC(=O)CSC[C@@H](C(=O)N[C@@H](C)C(N)=O)NC(=O)[C@H]([C@@H](C)O)NC(=O)[C@H](C(C)C)NC1=O [Compound 1040] ({CH2CO}-[Dap]Y(Carboxymethyl)DWV[Bip][Cit][Orn][dL][Dab]LVTCA-NH2; thioether N-14),24.3
4,Cc1cccc(C[C@@H]2NC(=O)[C@H](CC(=O)O)NC(=O)[C@H](Cc3ccc(OCC(=O)O)cc3)NC(=O)[C@H](Cc3ccncc3)NC(=O)CSC[C@@H](C(=O)N[C@@H](C)C(N)=O)NC(=O)[C@H]([C@@H](C)O)NC(=O)[C@H](C(C)C)NC(=O)[C@H](CC3CCCCC3)NC(=O)[C@H](CCN)NC(=O)[C@@H](CC(C)C)NC(=O)[C@H](CCCN)NC(=O)[C@H](CCCNC(N)=O)NC(=O)[C@H](Cc3ccc(-c4ccccc4)cc3)NC(=O)[C@H](C(C)C)NC2=O)c1 [Compound 1196],8.2

# Other lines, results leading:
row,IC50 [nM],Compound
1,93.4,CC(C)C[C@H]1NC(=O)[C@H](CCCN)NC(=O)[C@H](CCCNC(N)=O)NC(=O)[C@H](Cc2ccc(-c3ccccc3)cc2)NC(=O)[C@H](C(C)C)NC(=O)[C@H](Cc2c[nH]c3ccccc23)NC(=O)[C@H](CC(=O)O)NC(=O)[C@H](Cc2ccc(C(C)(C)C)cc2)NC(=O)[C@H](CN)NC(=O)CSC[C@@H](C(=O)N[C@@H](C)C(N)=O)NC(=O)[C@H]([C@@H](C)O)NC(=O)[C@H](C(C)C)NC(=O)[C@H](CC2CCCCC2)NC(=O)[C@H](CCN)NC1=O [Compound 2106] ({CH2CO}-[Dap][Phe(4-tBu)]DWV[Bip][Cit][Orn][dL][Dab][Cha]VTCA-NH2; thioether N-14)
2,35.8,CC(C)[C@@H]1NC(=O)[C@H](Cc2c[nH]c3ccccc23)NC(=O)[C@H](CC(=O)O)NC(=O)[C@H](Cc2ccc(O)cc2)NC(=O)[C@H](CC(N)=O)NC(=O)CSC[C@@H](C(=O)N[C@@H](C)C(N)=O)NC(=O)[C@H]([C@@H](C)O)NC(=O)[C@H](C(C)C)NC(=O)[C@H](CC2CCCCC2)NC(=O)[C@H](CCN)NC(=O)[C@@H](CC2CCCCC2)NC(=O)[C@H](CCCN)NC(=O)[C@H](C(C)C)NC(=O)[C@H](Cc2ccc(-c3ccccc3)cc2)NC1=O [Compound 1639] ({CH2CO}-NYDWV[Bip]V[Orn][dCha][Dab][Cha]VTCA-NH2; thioether N-14)
3,12.1,CC(C)C[C@H]1NC(=O)[C@H](CCCN)NC(=O)[C@H](C(C)C)NC(=O)[C@H](Cc2ccc(-c3ccccc3)cc2)NC(=O)[C@H](C(C)C)NC(=O)[C@H](Cc2cccc(C(F)(F)F)c2)NC(=O)[C@H](CC(=O)O)NC(=O)[C@H](Cc2ccc(OCC(=O)O)cc2)NC(=O)[C@H](Cc2ccncc2)NC(=O)CSC[C@@H](C(=O)N[C@@H](C)C(N)=O)NC(=O)[C@H]([C@@H](C)O)NC(=O)[C@H](C(C)C)NC(=O)[C@H](CC2CCCCC2)NC(=O)[C@H](CCN)NC1=O [Compound 1577]
